Laboratory results: article PMC3898461 (Biochemistry, 2013)

Target: MurQ-EC (MurNAc 6P hydrolase from Escherichia coli) (Escherichia coli, UniProt P76535)
Assay: coupled spectrophotometric assay of D-lactate release
Assay type: biochemical

MurQ-EC (MurNAc 6P hydrolase from Escherichia coli), sequence (P76535 whole entry): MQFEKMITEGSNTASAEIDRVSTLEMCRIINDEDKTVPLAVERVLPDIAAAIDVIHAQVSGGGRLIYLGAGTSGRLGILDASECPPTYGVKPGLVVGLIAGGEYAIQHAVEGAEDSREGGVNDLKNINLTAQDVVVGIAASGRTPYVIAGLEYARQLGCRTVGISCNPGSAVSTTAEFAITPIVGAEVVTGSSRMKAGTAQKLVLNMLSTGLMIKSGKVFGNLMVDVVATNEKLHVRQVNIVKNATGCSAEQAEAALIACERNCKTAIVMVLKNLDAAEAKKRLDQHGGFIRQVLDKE

Ki [µM]	Compound
1100 ± 300	CC(=O)N[C@@H](CO)[C@@H](O)[C@H](O)[C@H](O)COP(=O)(O)O [compound 1]
230 ± 20	CC(=O)N[C@@H](CO)[C@@H](O[C@H](C)C(=O)O)[C@H](O)[C@H](O)COP(=O)(O)O [compound 2]
